Source: patent publication US20150148551A1, “GENISTEIN FOR REDUCING LEVELS OF STORAGE COMPOUNDS IN THE TREATMENT AND/OR PREVENTION OF LYSOSOMAL STORAGE DISEASES (LSDS)” (3G THERAPEUTICS, INC., priority 2012, published 2015)

Key:
FUCA1 = experiment: DNA microarray, FUCA1 expression in fibroblasts exposed to genistein; assay type: cell-based, human; details: 100 μM
Method: (§1) The experiments were conducted to characterise the transcriptomic profile of human fibroblast cells exposed to genistein, and in particular to determine the expression of genes encoding lysosomal enzymes involved in metabolism (i.e. synthesis and degradation) of organic substances. The absence or deficiency of these enzymes' activity is responsible for occurrence of various lysosomal storage diseases (LSD) (including MPS). The tested hypothesis assumed that genistein influences the expression of many genes, among which there are genes coding for enzymes required in metabolism of compounds, which are pathologically stored in LSD. The results provide important information regarding genistein action on the molecular level within the range of gene expression modulation by this substance. The experiment was conducted in biological quintuplicates. Human dermal fibroblasts (HDFa) were exposed in vitro for 1, 24 or 48 hours to: 30, 60 or 100 μM of genistein; 0.05% DMSO (K1); or were untreated (control cells) (K2), and total RNA was isolated and analysed.
(§2) Fibroblast cells were grown in Dulbecco (DMEM) medium supplemented with 10% fetal bovine serum (FBS) with the addition of 1% antibiotics and anti-fungal agents at 37° C. in humidified atmosphere of 5% CO2, until the required confluency was obtained.
(§3) To determine the effect of tested compound on the transcriptom of the fibroblast cells, the growth medium was replaced with fresh medium, either non-supplemented (0.05% DMSO), or containing genistein (30, 60 or 100 μM, in 0.05% DMSO). The exposure was done for 1, 24 or 48 hours.
(§4) Total RNA was isolated from fibroblasts using High Pure RNA Isolation Kit according to the protocol and then it was quantitatively evaluated using Quant-It™ RiboGreen® Assay Kit.
(§5) Biotinylated cRNA was prepared using Ambion Total PrepAmp Kit for Illumina arrays.
(§6) Standard hybridization and quantitative image analysis procedures—Illumina hybridization protocol and Illumina scanning protocol, were used.
(§7) Processing of the results was done during data definition, including: background correction (using background subtraction method), normalization (using quantile normalization algorithm with Illumina GenomeStudio software package: gene expression module version 1.9.0) and summarization (using method, which sums the values of signal intensities from a set of probes).

ACP2 = experiment: DNA microarray, ACP2 expression in fibroblasts exposed to genistein; assay type: cell-based, human; details: for ACP2 fold change Average: 48 h vs DMSO
Method: as §1, §2, §3, §4, §5, §6, §7

GNS = experiment: DNA microarray, GNS expression in fibroblasts exposed to genistein; assay type: cell-based, human; details: for GNS fold change Average: 48 h vs DMSO
Method: as §1, §2, §3, §4, §5, §6, §7

[1] = test system: Human dermal fibroblasts (HDFa); experiment: Transcriptomic profiling of fibroblasts with DNA microarrays, genes of synthesis and degradation; assay type: cell-based; details: cells cultured in the presence vs absence of genistein
Method: as §1, with “analysed. […]” for “analysed.”
Total RNA was isolated from fibroblasts using High Pure RNA Isolation Kit according to the protocol and then it was quantitatively evaluated using Quant-It™ RiboGreen® Assay Kit. […]
Standard hybridization and quantitative image analysis procedures—Illumina hybridization protocol and Illumina scanning protocol, were used. […]

[2] = test system: fibroblasts from patients with MPS type I, IIIA and IIIB; details: cited from earlier work
CTSK = experiment: DNA microarray, CTSK expression in fibroblasts exposed to genistein; assay type: cell-based, human; details: for CTSK fold change Average: 48 h vs DMSO
Method: as §1, §2, §3, §4, §5, §6, §7

HYAL3 = experiment: DNA microarray, HYAL3 expression in fibroblasts exposed to genistein; assay type: cell-based, human; details: for HYAL3 fold change Average: 48 h vs DMSO
Method: as §1, §2, §3, §4, §5, §6, §7

CTSD = experiment: DNA microarray, CTSD expression in fibroblasts exposed to genistein; assay type: cell-based, human; details: for CTSD fold change Average: 48 h vs DMSO
Method: as §1, §2, §3, §4, §5, §6, §7

GM2A = experiment: DNA microarray, GM2A expression in fibroblasts exposed to genistein; assay type: cell-based, human; details: for GM2A fold change Average: 48 h vs DMSO
Method: as §1, §2, §3, §4, §5, §6, §7

SUMF1 = experiment: DNA microarray, SUMF1 expression in fibroblasts exposed to genistein; assay type: cell-based, human; details: for SUMF1 fold change Average: 48 h vs DMSO
Method: as §1, §2, §3, §4, §5, §6, §7

In the case of `O=c1c(-c2ccc(O)cc2)coc2cc(O)cc(O)c12` [genistein, 4′,5,7-trihydroxy-3-phenylchromen-4-one], the “FUCA1 fold change Average 1h100/1hK1” value (FUCA1; 1 h vs 0.05% DMSO) is reported as 0.9945 fold change, the “FUCA1 fold change Average” value (FUCA1; 48 h vs DMSO) is reported as 1.634 fold change and the “ACP2 fold change Average 1h30/1hK1” value (ACP2; 30 μM, 1 h vs 0.05% DMSO) is reported as 1.0116 fold change. The “ACP2 fold change Average” value (ACP2; 30 μM) was 1.0451 fold change, the “ACP2 fold change Average 1h60/1hK1” value (ACP2; 60 μM, 1 h vs 0.05% DMSO) was 0.95 fold change and the “ACP2 fold change Average” value (ACP2; 60 μM) was 1.063 fold change. The “ACP2 fold change Average 1h100/1hK1” value (ACP2; 100 μM, 1 h vs 0.05% DMSO) was 0.9804 fold change, the “ACP2 fold change Average” value (ACP2; 100 μM) was 1.147 fold change and the “GNS fold change Average 1h30/1hK1” value (GNS; 30 μM, 1 h vs 0.05% DMSO) was 1.0062 fold change. For the same molecule, the “GNS fold change Average” value (GNS; 30 μM) was 1.2473 fold change, the “GNS fold change Average 1h60/1hK1” value (GNS; 60 μM, 1 h vs 0.05% DMSO) was 1.022 fold change and the “GNS fold change Average” value (GNS; 60 μM) was 1.495 fold change. The “GNS fold change Average 1h100/1hK1” value (GNS; 100 μM, 1 h vs 0.05% DMSO) was 1.0219 fold change, the “GNS fold change Average” value (GNS; 100 μM) was 1.418 fold change and the “expression of genes of degradation” value [1] was “increased”. The “expression of genes of synthesis” value [1] was “reduced”, the GAG synthesis [2] was “reduces levels of GAG synthesis” and the “storage depositions in cells” value [2] was “causes disappearance of the storage depositions in cells”. For the same molecule, the “CTSK fold change Average 1h30/1hK1” value (CTSK; 30 μM, 1 h vs 0.05% DMSO) was 0.9778 fold change, the “CTSK fold change Average” value (CTSK; 30 μM) was 1.2621 fold change and the “CTSK fold change Average 1h60/1hK1” value (CTSK; 60 μM, 1 h vs 0.05% DMSO) was 1.108 fold change. For the same molecule, the “CTSK fold change Average” value (CTSK; 60 μM) was 1.387 fold change, the “CTSK fold change Average 1h100/1hK1” value (CTSK; 100 μM, 1 h vs 0.05% DMSO) was 0.9868 fold change and the “CTSK fold change Average” value (CTSK; 100 μM) was 1.541 fold change. The “HYAL3 fold change Average 1h30/1hK1” value (HYAL3; 30 μM, 1 h vs 0.05% DMSO) was 1.1887 fold change, the “HYAL3 fold change Average” value (HYAL3; 30 μM) was 0.8605 fold change and the “HYAL3 fold change Average” value (HYAL3; 60 μM) was 0.9492 fold change. The “HYAL3 fold change Average 1h100/1hK1” value (HYAL3; 100 μM, 1 h vs 0.05% DMSO) was 1.141 fold change, the “HYAL3 fold change Average” value (HYAL3; 100 μM) was 1.001 fold change and the “CTSD fold change Average 1h30/1hK1” value (CTSD; 30 μM, 1 h vs 0.05% DMSO) was 0.9734 fold change. For the same molecule, the “CTSD fold change Average” value (CTSD; 30 μM) was 1.3322 fold change, the “CTSD fold change Average 1h60/1hK1” value (CTSD; 60 μM, 1 h vs 0.05% DMSO) was 1.119 fold change and the “CTSD fold change Average” value (CTSD; 60 μM) was 1.302 fold change. For the same molecule, the “CTSD fold change Average 1h100/1hK1” value (CTSD; 100 μM, 1 h vs 0.05% DMSO) was 1.018 fold change, the “CTSD fold change Average” value (CTSD; 100 μM) was 1.939 fold change and the “GM2A fold change Average 1h30/1hK1” value (GM2A; 30 μM, 1 h vs 0.05% DMSO) was 1.5655 fold change. For the same molecule, the “GM2A fold change Average” value (GM2A; 30 μM) was 1.0452 fold change, the “GM2A fold change Average 1h60/1hK1” value (GM2A; 60 μM, 1 h vs 0.05% DMSO) was 1.181 fold change and the “GM2A fold change Average” value (GM2A; 60 μM) was 1.612 fold change. For the same molecule, the “GM2A fold change Average 1h100/1hK1” value (GM2A; 100 μM, 1 h vs 0.05% DMSO) was 1.254 fold change, the “GM2A fold change Average” value (GM2A; 100 μM) was 1.536 fold change and the “SUMF1 fold change Average 1h30/1hK1” value (SUMF1; 30 μM, 1 h vs 0.05% DMSO) was 1.1314 fold change. For the same molecule, the “SUMF1 fold change Average” value (SUMF1; 30 μM) was 1.2364 fold change, the “SUMF1 fold change Average 1h60/1hK1” value (SUMF1; 60 μM, 1 h vs 0.05% DMSO) was 1.158 fold change and the “SUMF1 fold change Average” value (SUMF1; 60 μM) was 1.849 fold change. For the same molecule, the “SUMF1 fold change Average 1h100/1hK1” value (SUMF1; 100 μM, 1 h vs 0.05% DMSO) was 1.095 fold change and the “SUMF1 fold change Average” value (SUMF1; 100 μM) was 1.705 fold change.
